7 molecules from patent EP4763837A1, “PHOTOCHROMIC COMPOUND, CURABLE COMPOSITION, OPTICAL ARTICLE, LENS, AND EYEGLASSES” (TOKUYAMA CORPORATION, priority 2023, dated 2025) can be followed below.

Where “and” joins values, the source holds several entries; their conditions need not be identical. Identical values can stand only once.

What all share (assay type): physicochemical
A short description of series [1]: Solubility of photochromic compound in polymerizable compounds. Set-up: key: 1: No haze is seen when checked under transmission of light, and the sample is completely dissolved.; 2: A very thin haze is seen to the extent that it can be seen under transmission of light.; 3: A thin haze that can be seen under transmission of light is seen.; 4: A haze can be seen even without transmission of light. The note with it: 35 µmol/g in radical polymerizable compound composition of Example 21, 65 to 70°C; for Dissolution for 15 min / Dissolution for 30 min / Dissolution for 45 min: stirring and ultrasonic irradiation; for Dissolution for 1 hour: head reads 60 min in Tables 8 to 14. Summed up:
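Photochromic compound was added to the radical polymerizable portion of a curable composition and dissolved at 65 to 70°C under stirring and intermittent ultrasonication. The sample was inspected visually by transmitted light every 15 minutes up to 1 h and scored 1 (fully dissolved, no haze) to 4 (haze visible without transmitted light). Solubility was ranked by the time taken to reach score 1.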

Series [2] is described as follows: Photochromic property of binder sheet (photochromic layer made by binder method). The note with it: for Residual ratio: A96/A0 x 100 after 96 hours accelerated degradation, xenon weather meter X25; for Color developing density at 23°C: absorbance difference after 240 seconds irradiation at the maximum absorption wavelength of the same line. The protocol: (§1) The resulting photochromic laminates were evaluated by the below-mentioned methods. • (1) Photochromic property • [1] Maximum absorption wavelength (λmax): This is the maximum absorption wavelength after color development determined by a spectrophotometer manufactured by Otsuka Electronics Co., Ltd. (instantaneous multichannel photo detector MCPD3000) and was used as an index of a color tone upon color development. • [2] Color developing density at 23°C (A23): This is a difference between an absorbance {ε(240)} after irradiation with light at 23°C for 240 seconds and an absorbance ε(0) when not irradiated with light at the maximum absorption wavelength and was used as an index of a color developing density. The higher this value is, the better a photochromic property is. • [3] Color fading half-life at 23°C [τ1/2 (sec).)]: This is a period of time taken by an absorbance at the maximum absorption wavelength of a sample to decrease to 1/2 of {ε(240)-ε(0)} when irradiation is stopped after irradiation with light at 23°C for 240 seconds, and was used as an index of a color fading rate. The shorter this period of time is, the faster the color fading rate is. • [4] Residual ratio (A96/A0 x 100): The resulting photochromic plastic lens was subjected to accelerated degradation for 96 hours using a xenon weather meter X25 manufactured by Suga Test Instruments Co., Ltd. Color developing densities were then evaluated before and after a test, and a color developing density before the test (A0) and a color developing density after the test (A96) were measured. A ratio (A96/A0) was determined as a residual ratio and was used as an index of color development durability. The higher the residual ratio is, the more durable the color development is.
A binder sheet was produced as follows. The binder sheet was made by laminating a first optical sheet, a first adhesive layer, a photochromic layer, a second adhesive layer, and a second optical sheet in this order. A polycarbonate sheet with a thickness of 400 µm was used as the first optical sheet and the second optical sheet.
A 2 L four-necked flask equipped with a stirring blade, a condense tube, a thermometer, and a nitrogen gas inlet tube was charged with 315 parts by mass of polycarbonate diol with a number average molecular weight of 1000, 100 parts by mass of isophorone diisocyanate, and 72 parts by mass of toluene and reacted under a nitrogen atmosphere at 100°C for 7 hours. Thus, a urethane prepolymer with a terminal isocyanate group was synthesized. After the reaction of the above-mentioned urethane prepolymer was completed, the resulting reaction liquid was cooled to about 0°C and dissolved in 205 parts by mass of tertiary-butyl alcohol and 382 parts by mass of diethyl ketone, and then a temperature of the resulting liquid was kept at 0°C. Next, a mixed solution of 21.3 parts by mass of bis-(4-aminocyclohexyl)methane serving as a chain extender and 20 parts by mass of diethyl ketone was added dropwise thereto within 30 minutes and reacted at 0°C for 1 hour. Then, 8.1 parts by mass of 1,2,2,6,6-pentamethyl-4-aminopiperidine was added dropwise thereto and reacted at 0°C for 1 hour to obtain a solution of a terminal non-reactive urethane urea resin in diethylketone.
One hundred parts by mass of the resulting solution of a terminal non-reactive urethane urea resin, 6.3 parts by mass of Example 1 (a photochromic compound represented by Formula (1-7), an isomer mixture of 4,4'-methylenebis(cyclohexylisocyanate) (polyisocyanate compound)), 0.4 parts by mass of ethylenebis(oxyethylene) bis[3-(5-tert-butyl-4-hydroxy-m-tolyl) propionate] serving as an antioxidant, and 0.06 parts by mass of L-7001 manufactured by DuPont Toray Specialty Materials K.K. serving as a surfactant were added and stirred and mixed at room temperature to obtain a composition for forming a photochromic layer. […]

The nature of series [3]: Photochromic property of photochromic cured product made by kneading method. The note with it: for Residual ratio: A96/A0 x 100 after 96 hours accelerated degradation, xenon weather meter X25; for Color developing density at 23°C: absorbance difference after 240 seconds irradiation at the maximum absorption wavelength of the same line. The protocol: as §1
First, the photochromic compound obtained in Example 1, an additive, and a polymerizable compound were mixed to obtain a curable composition. The polymerizable compound was a combination of the following polymerizable monomers: • · 1,3-Bis(isocyanatomethyl)cyclohexane: 36.7 parts by mass • · Pentaerythritol tetrakis(3-mercaptopropionate): 39.4 parts by mass • · Polyoxyethylene polyoxypropylene lauryl ether (WONDERSURF 140 manufactured by AOKI OIL INDUSTRIAL Co., Ltd.): 17.4 parts by mass • · 1-Decanethiol: 2.8 parts by mass • · RX-1 prepared by the method described in Patent Document 14: 3.8 parts by mass
Note that, in the curable composition, the photochromic compound was added in an amount of 0.106 mmol taking a total amount of the polymerizable monomers as 100 g.
The following additives were used: • · Dimethyltin dichloride: 0.05 parts by mass • · Irganox 245: 0.1 parts by mass • · 2-Ethylhexyl […]: 0.6 parts by mass
After the thus-prepared curable composition was thoroughly defoamed, it was poured into a glass mold with a gap of 1 mm and polymerized by casting polymerization. […] After the polymerization, the resulting cured product was removed from the glass mold to obtain a photochromic cured product with a thickness of 1 mm. The resulting photochromic cured product was evaluated in the same manner as for Example 23.
Photochromic cured products were produced using the photochromic compounds shown in Table 4 in the same manner as in Example 50.

Regarding `CCCCCCC1(CC)c2ccccc2-c2c1c1c(c3cc(OC)c(N4CCOCC4)cc23)OC(c2ccc(OC)cc2)(c2ccc(OC)cc2)C=C1` (stereo not shown) [Formula (18-1)], in series [1], the “Dissolution for 15 min” value came out at 3, the “Dissolution for 30 min” value stood at 2, the “Dissolution for 45 min” value amounted to 1 and the “Dissolution for 1 hour” value was found to be 1. For the same molecule, the Residual ratio in series [2] was 71% and 74%. Also, the Residual ratio in series [3] is 60% and 61%.
Consider `CCC1(OC)c2ccccc2-c2c1c1c(c3cc(OC)c(N4CCOCC4)cc23)OC(c2ccc(OC)cc2)(c2ccc(OC)cc2)C=C1` (stereo not shown) [Formula (B), reference compound], for which, in series [1], the “Dissolution for 15 min” value is recorded as 4, the “Dissolution for 30 min” value amounted to 3, the “Dissolution for 45 min” value worked out at 1 and the “Dissolution for 1 hour” value was 1. In series [2], the Residual ratio was 50% and 51%; the “Color developing density at 23°C” value was 1.32 - and 0.71 -. Also, in series [3], the Residual ratio is 40% and 42%; the “Color developing density at 23°C” value is 1.32 - and 0.69 -.
`CCC1(C)c2ccccc2-c2c1c1c(c3cc(OC)c(N(C)c4ccccc4)cc23)OC(c2ccc(OC)cc2)(c2ccc(OC)cc2)C=C1` (stereo not shown) [Formula (9-1)]: in series [1], the “Dissolution for 15 min” value stood at 4, the “Dissolution for 30 min” value turned out to be 2, the “Dissolution for 45 min” value turned out to be 2 and the “Dissolution for 1 hour” value was 1. In series [2], the Residual ratio is 93% and the “Color developing density at 23°C” value is on record as 1.19 -. Besides, in series [3], the Residual ratio is 79% and the “Color developing density at 23°C” value is recorded as 1.20 -.
Turning to `COc1ccc(C2(c3ccc(OC)cc3)C=Cc3c4c(c5cc(N6CCOCC6)c(OC)cc5c3O2)-c2ccccc2C4(C)C)cc1` [Formula (A), reference compound], in series [1], the “Dissolution for 15 min” value is 4, the “Dissolution for 30 min” value turned out to be 3, the “Dissolution for 45 min” value amounted to 3 and the “Dissolution for 1 hour” value is 3. In series [2], the Residual ratio was 63% and 65%. Further, in series [3], the Residual ratio is 54% and 56%; the “Color developing density at 23°C” value was 1.68 - and 0.85 -.
Regarding `CCCCC1(CCC)c2ccccc2-c2c1c1c(c3cc(OC)c(N4CCOCC4)cc23)OC(c2ccc(OC)cc2)(c2ccc(OC)cc2)C=C1` (stereo not shown) [Formula (6-2)], in series [1], the “Dissolution for 15 min” value is on record as 4, the “Dissolution for 30 min” value came to 2, the “Dissolution for 45 min” value is recorded as 1 and the “Dissolution for 1 hour” value turned out to be 1. In series [2], the Residual ratio is 75% and 72%.
With `CCCC1(CC)c2ccccc2-c2c1c1c(c3cc(OC)c(N4CCOCC4)cc23)OC(c2ccc(OC)cc2)(c2ccc(OC)cc2)C=C1` (stereo not shown) [Formula (14-1)], in series [1], the “Dissolution for 15 min” value stood at 4, the “Dissolution for 30 min” value amounted to 2, the “Dissolution for 45 min” value was found to be 1 and the “Dissolution for 1 hour” value is reported as 1. For the same molecule, the Residual ratio in series [2] was 75%. Also, in series [3], the Residual ratio is 63% and 64%.
In the case of `CCCCCCCCCCCC1(C)c2ccccc2-c2c1c1c(c3cc(OC)c(N4CCOCC4)cc23)OC(c2ccc(OC)cc2)(c2ccc(OC)cc2)C=C1` (stereo not shown) [Formula (19-1)], in series [1], the “Dissolution for 15 min” value is reported as 2, the “Dissolution for 30 min” value came to 1, the “Dissolution for 45 min” value is given as 1 and the “Dissolution for 1 hour” value amounted to 1. Besides, the Residual ratio in series [2] was 62% and 66%. Further, the Residual ratio in series [3] was 52% and 55%.
